Measured values from US20250171400A1, “AZA-HETEROCYCLYL CARBOXAMIDE AND RELATED COMPOUNDS AND THEIR USE IN TREATING MEDICAL CONDITIONS” (X-BIOTIX THERAPEUTICS, INC., priority 2021, published 2025).
≈ marks a conversion by molar mass, not a printed value. Where two headings read alike, the source gives them in different places.

Tests used:
[1] = test system: wild-type P. aeruginosa PAO1; test: broth microdilution minimum inhibition concentration assay; assay type: cell-based; conditions: Pseudomonas aeruginosa
Method: (§1) Exemplary compounds from the above Examples were tested to determine their minimum inhibitory concentration (MIC) for exemplary strains of Eschericia and Pseudomonas bacteria using broth microdilution methods. Assay procedures and results are described below.
(§2) Broth microdilution assays were conducted according to Clinical and Laboratory Standards Institute guidelines (CLSI, M07-A11: Clinical and Laboratory Standards Institute. Methods for Dilution Antimicrobial Susceptibility Tests for Bacteria that Grow Aerobically; Approved Standard—11th Edition. Wayne, PA: CLSI, 2018.). Briefly, a 0.5 McFarland standard suspension was made from bacterial isolates on non-selective, solid media. The inocula were adjusted to give a bacterial concentration of 1×10^6 CFU/mL. Serial doubling-dilutions of each compound were prepared in cation-adjusted Mueller-Hinton broth (Sigma-Aldrich) in 96-well microdilution plates. A 50 μL aliquot of the inoculum was added to each microdilution plate and, within 15 minutes, incubated at 37° C. in air for 16-20 h. […] The test was controlled by the determination of piperacillin MIC against both E. coli ATCC 25922 and P. aeruginosa ATCC 27853 and ensuring accordance with the ranges published in CLSI supplementary document M100 (CLSI, M100Ed29: Clinical and Laboratory Standards Institute. Performance Standards for Antimicrobial Susceptibility Testing, 29th Edition. Wayne, PA: CLSI, 2018.).
(§3) Multiple enterobacteriaceae strains were tested, including E. coli ATCC 25922 and K. pneumoniae ATCC 43816. WT E. coli BW25113 was tested with an isogenic mutant deficient in acrA mediated efflux by clean deletion. WT P. aeruginosa PAO1 was tested with an isogenic mutant deficient in MexA mediated efflux by clean deletion.
(§4) Experimental results are provided in Table 4, which provides MIC values for wild-type E. coli BW25113 (“E. coli WT MIC”), an isogenic mutant deficient in acrA mediated efflux by clean deletion (“E. coli KO MIC”), wild-type P. aeruginosa PAO1 (“P. aeruginosa WT MIC”), and an isogenic mutant deficient in MexA mediated efflux by clean deletion (“[…]”).

[2] = test system: wild-type E. coli BW25113; test: as above; assay type: cell-based; conditions: Escherichia coli; wild-type E. coli BW25113, 37° C. 16-20 h; read-out: E. coli WT MIC
Method: as §1, §2, §3, §4

[3] = test system: P. aeruginosa PAO1 isogenic mutant deficient in MexA mediated efflux; test: as above; assay type: cell-based; conditions: Pseudomonas aeruginosa, PAO1, read-out: P. aeruginosa KO MIC
Method: as §1, §2, §3, §4

[4] = test system: E. coli BW25113 isogenic mutant deficient in acrA mediated efflux; test: as above; assay type: cell-based; conditions: Escherichia coli, BW25113, read-out: E. coli KO MIC
Method: as §1, §2, §3, §4

P. aeruginosa LpxC = P. aeruginosa LpxC (Pseudomonas aeruginosa (strain ATCC 15692 / DSM 22644 / CIP 104116 / JCM 14847 / LMG 12228 / 1C / PRS 101 / PAO1), UniProt P47205); test: biochemical; assay type: biochemical; conditions: 5 nM P. aeruginosa LpxC, 2.5 μM substrate, 1 hour at room temperature
Method: (§5) Exemplary compounds from the above Examples were tested for ability to inhibit LpxC activity using an in vitro substrate deacetylation assay with ADDA™ analysis. Assay procedures and results are described below.
(§6) For ADDA™ analysis, an aliquot of assay sample was withdrawn from each well of the 384-well plate and applied to a Hypercarb cartridge (Optimize Technologies, USA) under conditions designed to retain analytes of interest. Analytes were eluted using 1:1:2 acetone:acetonitrile:water containing 5 mM ammonium acetate then analysed by triple-quadrupole mass spectrometry. Mass spectrometry was carried out using electrospray ionization in negative ion mode.
For IC50 determinations, peak areas of the substrate and product were compared to compute the proportion of substrate reacted by the LpxC enzyme at each compound concentration.

E. coli LpxC = E. coli LpxC (Escherichia coli (strain K12), UniProt P0A725); test: in vitro substrate deacetylation assay for inhibition of LpxC (ADDA analysis); assay type: biochemical; conditions: 5 nM E. coli LpxC, 2.5 μM substrate, 1 hour at room temperature
Method: as §5
Dilutions of test compound were pre-incubated with 5 nM P. aeruginosa or E. coli LpxC for 10 minutes at room temperature in 50 mM NaH2PO4, 500 mM sucrose, 0.2 mg/mL BSA, pH 7.2 and <1% DMSO. Reactions were initiated by the addition of 2× substrate (UDP-3-O—(R-3-hydroxydecanoyl)-N-acetylglucosamine, Carbosynth Ltd, UK, for P. aeruginosa LpxC and UDP-3-O—(R-3-hydroxymyristoyl)-N-acetylglucosamine, BOC Sciences, USA, for E. coli LpxC), in 50 mM NaH2PO4, 0.5 mg/mL BSA, pH 7.2, to a final concentration of 2.5 μM. Reactions proceeded for 1 hour at room temperature prior to quenching with and equal volume of 2% acetic acid.
as §6, with “mode. Daughter ion peaks representing detected substrate (P. aeruginosa: parent Q1 mass=775.8 amu, daughter Q3 mass=384.7 amu E. coli: parent Q1 mass=833.0 amu, daughter Q3 mass=385.0 amu, collision energy=analyte specific, dwell time=50 ms) were identified using a multiple-reaction monitoring protocol.” for “mode.”
Total activity (0% inhibition) was obtained from reactions containing no compound, and 100% inhibition is defined as reactions in the presence of 1 μM CHIR-090 (N-[(1S,2R)-2-hydroxy-1-[(hydroxyamino)carbonyl]propyl]-4-[2-[4-(4-morpholinylmethyl)phenyl]ethynyl]-benzamide). For IC50 determinations, peak areas of the substrate and product were compared to compute the proportion of substrate reacted by the LpxC enzyme at each compound concentration. The fractional activity was converted to percentage inhibition and plotted against compound concentration in ActivityBase™ and fit using a four-parameter logistic using non-linear regression to yield the IC50 value.

[5] = PAO1, read-out: P. aeruginosa WT MIC
[6] = wild-type P. aeruginosa PAO1, 37° C. 16-20 h, read-out: P. aeruginosa WT MIC

Sequence of E. coli LpxC (P0A725 whole entry): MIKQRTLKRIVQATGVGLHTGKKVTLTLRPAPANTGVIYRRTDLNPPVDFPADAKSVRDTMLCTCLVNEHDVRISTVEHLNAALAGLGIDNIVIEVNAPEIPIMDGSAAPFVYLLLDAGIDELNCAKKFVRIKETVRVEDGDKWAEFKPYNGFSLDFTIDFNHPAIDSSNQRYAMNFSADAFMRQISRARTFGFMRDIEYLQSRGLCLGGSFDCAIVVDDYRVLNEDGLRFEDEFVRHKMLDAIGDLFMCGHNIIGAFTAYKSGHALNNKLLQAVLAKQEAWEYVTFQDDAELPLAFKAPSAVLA

Structure (SMILES)	MIC [1, 5]	MIC [2]	MIC [3]	MIC [4]	IC50 (P. aeruginosa LpxC)	IC50 (E. coli LpxC)	MIC [1, 6]
CC(C)C(=O)N1C[C@H](NC(=O)[C@H]2NCC[C@@H]2O)C[C@@H]1C(=O)NCc1ccc(C#CC#CC2CC2)cc1 [Example 9AB]	> 100 µM	> 100 µM	20 to 100 µM (≈ 9.81 to 49.1 µg/mL)	20 to 100 µM (≈ 9.81 to 49.1 µg/mL)	< 50 nM	500 to 2500 nM	
CC(C)C(=O)N1C[C@H](NC(=O)[C@@H]2CCCN2)C[C@@H]1C(=O)NCc1ccc(C#CC#CC2CC2)cc1 [Example 9L]	> 100 µM	> 100 µM	20 to 100 µM (≈ 9.49 to 47.5 µg/mL)	20 to 100 µM (≈ 9.49 to 47.5 µg/mL)	100 to 1000 nM	500 to 2500 nM	
C[C@H](CN)C(=O)N1C[C@H](NC(=O)[C@@H]2C[C@H](F)CN2)C[C@@H]1C(=O)NCc1ccc(C#CC#CC2CC2)cc1 [Example 9N]	> 100 µM	> 100 µM	> 100 µM	> 100 µM	50 to 100 nM	500 to 2500 nM	
CC(C)C(=O)N1C[C@H](NC(=O)[C@@H]2C[C@@H](F)CN2)C[C@@H]1C(=O)NCc1ccc(C#CC#CC2CC2)cc1 [Example 9I]	> 100 µM	> 100 µM	> 100 µM	> 100 µM	100 to 1000 nM	2500 to 10000 nM	
COC(=O)N1C[C@H](NC(=O)[C@@H]2C[C@H](F)CN2)C[C@@H]1C(=O)NCc1ccc(C#CC#CC2CC2)cc1 [Example 9R]		> 100 µM	< 20 µM	< 20 µM	< 50 nM	500 to 2500 nM	> 100 µM
NC1CN(C(=O)N2C[C@H](NC(=O)[C@@H]3C[C@H](F)CN3)C[C@@H]2C(=O)NCc2ccc(C#CC#CC3CC3)cc2)C1 [Example 9X]		> 100 µM	< 20 µM	20 to 100 µM (≈ 10.4 to 52.1 µg/mL)	< 50 nM	500 to 2500 nM	> 100 µM
CC(C)C(=O)N1C[C@H](NC(=O)[C@H]2NCC[C@@H]2O)C[C@@H]1C(=O)NCc1ccc(C#Cc2ccc(CN3CCOCC3)cc2)cc1 [Example 9AA]	> 100 µM	> 100 µM	20 to 100 µM (≈ 12 to 60.2 µg/mL)	> 100 µM	< 50 nM	500 to 2500 nM	
CC(C)C(=O)N1C[C@H](NC(=O)[C@@H]2C[C@@H](F)CN2)C[C@@H]1C(=O)NCc1ccc(C#Cc2ccc(CN3CCOCC3)cc2)cc1 [Example 9H]	> 100 µM	> 100 µM	> 100 µM	> 100 µM	100 to 1000 nM	2500 to 10000 nM	
N[C@H]1C[C@H](C(=O)N2C[C@H](NC(=O)[C@@H]3C[C@H](F)CN3)C[C@@H]2C(=O)NCc2ccc(C#CC#CC3CC3)cc2)C1 [Example 9AF]	> 100 µM	> 100 µM	> 100 µM	> 100 µM	50 to 100 nM	500 to 2500 nM	
